Consider 25 compounds from US9902710B2, “Substituted 6, 7-dialkoxy-3-isoquinoline derivatives as inhibitors of phosphodiesterase 10 (PDE 10A)” (Allergan, Inc., priority 2013, dated 2018).

SMILES strings stand for the structures. Counter-ions that a name gives are not always drawn.

The target in this experiment is PDE10A. As to the kind of experiment: Diaxonhit phosphodiesterase assay (TR-FRET, LANCE cAMP kit), PDE10A. In kind it is biochemical. As for the experimental part: Diaxonhit Phosphodiesterase Assay (PDE10A and PDE4D3)
The PDE assay is based on the homogenous time-resolved fluorescence resonance energy transfer (TR-FRET) technology (LANCE® from Perkin Elmer). […] When there is PDE activity, resulting in the degradation of the cyclic nucleotide, the complex is not formed and a decrease in signal is observed.
The phosphodiesterase assay was developed using the LANCE® cAMP kit (PerkinElmer). The assay buffer contained HBSS with 5 mM HEPES, 0.1% BSA, and 1.5 mM MgCl2, pH 7.4. […] Chemical compounds were dissolved in DMSO (final concentration 2% (v/v)).
In a 384-well plate, 2 μL of the inhibitor and 3 μL PDE were added to the well, followed by the addition of 5 μl substrate biotinylated cAMP (1:5). After 60 min incubation at room temperature, 10 μL of assay detection mixture was added to the assay plate. After 1 h at room temperature, the signal was measured on EnVision™ (PerkinElmer).
Background: Time-resolved FRET reads energy transfer from a long-lived donor to a nearby acceptor.
In turn, `COc1cc2cnc(C)c(Cc3cnc4ccccc4c3)c2cc1OC` [Compound 43, 3-((6,7-dimethoxy-3-methylisoquinolin-4-yl)methyl)quinoline dihydrocloride] came in with an IC50 of 39 nM.

As for `CCCc1ncc(Cc2ccc3oc(=O)n(CC(N)=O)c3c2)c2cc(OC)c(OC)cc12` [Compound 148, 2-(5-((6,7-dimethoxy-1-propylisoquinolin-4-yl)methyl)-2-oxobenzo[d]oxazol-3(2H)-yl)acetamide], the IC50 is 87 nM.

Compound `COc1cc2cncc(Cc3ccc4sccc4c3)c2cc1OC` [Compound 3, 4-(benzo[b]thiophen-5-ylmethyl)-6,7-dimethoxyisoquinoline hydrochloride] gave an IC50 of 100 nM.

Consider `CCCc1ncc(Cc2ccc3cccc(OCC(=O)NC4CC4)c3n2)c2cc(OC)c(OC)cc12` [Compound 126, N-cyclopropyl-2-((2-((6,7-dimethoxy-1-propylisoquinolin-4-yl)methyl)quinolin-8-yl)oxy)acetamide], for which the IC50 is 71 nM.

Take `CCc1ncc(Cc2cnc3ccc(N(C)S(C)(=O)=O)cc3c2)c2cc(OC)c(OC)cc12` [Compound 101, N-(3-((1-ethyl-6,7-dimethoxyisoquinolin-4-yl)methyl)quinolin-6-yl)-N-methylmethanesulfonamide]: the IC50 worked out at 43 nM.

Compound `CCOC(=O)C(=O)Nc1cccc2ccc(Cc3cnc(CC)c4cc(OC)c(OC)cc34)nc12` [Compound 92, ethyl 2-((2-((1-ethyl-6,7-dimethoxyisoquinolin-4-yl)methyl)quinolin-8-yl)amino)-2-oxoacetate] displayed a half-maximal inhibitory concentration (IC50) of 495 nM. Compared with the last compound, the IC50 is about 12-fold higher.

Take `CCCc1ncc(Cc2cc3cc(OC)ccc3nc2O)c2cc(OC)c(OC)cc12` [Compound 49, 3-((6,7-dimethoxy-1-propylisoquinolin-4-yl)methyl)-6-methoxyquinolin-2-ol dihydrochloride]: it took 63 nM to reach half-maximal inhibition (IC50).

As to `COc1cc2cncc(Cc3cnc4ccc(O)c(C(F)(F)F)c4c3)c2cc1OC` [Compound 161, 3-((6,7-dimethoxyisoquinolin-4-yl)methyl)-5-(trifluoromethyl)quinolin-6-ol], the IC50 amounted to 6 nM.

For `CCCc1ncc(Cc2ccc3nc(C)ccc3c2)c2cc(OC)c(OC)cc12` [Compound 57, 6-((6,7-dimethoxy-1-propylisoquinolin-4-yl)methyl)-2-methylquinoline dihydrochloride], half-maximal inhibition (IC50) was put at 20 nM.

Compound `COc1cc2cncc(Cc3ccc4cccc(OCCO)c4n3)c2cc1OC` [Compound 42, 2-((2-((6,7-dimethoxyisoquinolin-4-yl)methyl)quinolin-8-yl)oxy)ethanol dihydrochloride] yielded an IC50 of 42 nM.

For the compound `CCc1ncc(Cc2cnc3ccc(NC(=O)C(N)=O)cc3c2)c2cc(OC)c(OC)cc12` [Compound 98, N^1-(3-((1-ethyl-6,7-dimethoxyisoquinolin-4-yl)methyl)quinolin-6-yl)oxalamide], half-maximal inhibition (IC50) required 3.5 nM.

In turn, `CCCc1ncc(Cc2cc3cc(OC)ccc3nc2NCCNC(C)=O)c2cc(OC)c(OC)cc12` [Compound 76, N-(2-((3-((6,7-dimethoxy-1-propylisoquinolin-4-yl)methyl)-6-methoxyquinolin-2-yl)amino)ethyl)acetamide dihydrochloride] displayed an IC50 of 11 nM. This IC50 is about 3.1-fold higher than that of the compound before.

Consider `COC(=O)c1ccc(-c2nc3cc(Cc4cncc5cc(OC)c(OC)cc45)ccc3o2)cc1` [Compound 115, methyl 4-(5-((6,7-dimethoxyisoquinolin-4-yl)methyl)benzo[d]oxazol-2-yl)benzoate], for which half-maximal inhibition (IC50) required 61 nM.

As to `CCCc1ncc(Cc2cc3cc(C)ccc3nc2O)c2cc(OC)c(OC)cc12` [Compound 54, 3-((6,7-dimethoxy-1-propylisoquinolin-4-yl)methyl)-6-methylquinolin-2-ol dihydrochloride], 151 nM corresponded to half-maximal inhibition (IC50).

Regarding `CCc1ncc(Cc2ccc3cccc(O)c3n2)c2cc(OC)c(OC)cc12` [Compound 83, 2-((1-ethyl-6,7-dimethoxyisoquinolin-4-yl)methyl)quinolin-8-ol], the IC50 came to 11 nM.

The compound `CCc1ncc(Cc2ccc3cccc(CNS(N)(=O)=O)c3n2)c2cc(OC)c(OC)cc12` [Compound 94, N-((2-((1-ethyl-6,7-dimethoxyisoquinolin-4-yl)methyl)quinolin-8-yl)methyl)sulfamide] gave an IC50 of 13 nM.

In turn, `COc1cc2c(Cc3ccc4nc(C)ccc4c3)cnc(C)c2cc1OC` [Compound 105, 6-((6,7-dimethoxy-1-methylisoquinolin-4-yl)methyl)-2-methylquinoline dihydrochloride] came in with an IC50 of 4.3 nM.

The compound `CCOC(=O)COc1cccc2ccc(Cc3cnc(CC)c4cc(OC)c(OC)cc34)nc12` [Compound 128, ethyl 2-((2-((1-ethyl-6,7-dimethoxyisoquinolin-4-yl)methyl)quinolin-8-yl)oxy)acetate] showed an IC50 of 59 nM.

Take `CCCc1ncc(Cc2cnc3ccc(OCC(N)=O)cc3c2)c2cc(OC)c(OC)cc12` [Compound 144, 2-((3-((6,7-dimethoxy-1-propylisoquinolin-4-yl)methyl)quinolin-6-yl)oxy)acetamide]: inhibition was half-maximal at 6.5 nM (IC50).

As for `CCCc1ncc(Cc2cnc3ccc(OP(=O)(O)O)cc3c2)c2cc(OC)c(OC)cc12` [Compound 171, sodium 3-((6,7-dimethoxy-1-propylisoquinolin-4-yl)methyl)quinolin-6-yl phosphate], the IC50 is 62 nM.

As for `COc1cc2cncc(Cc3ccc4cccc(OC)c4n3)c2cc1OC` [Compound 21, 2-((6,7-dimethoxyisoquinolin-4-yl)methyl)-8-methoxyquinoline dihydrochloride], half-maximal inhibition (IC50) required 46 nM.

In turn, `CCNc1nc2ccc(OC)cc2cc1Cc1cncc2cc(OC)c(OC)cc12` [Compound 113, 3-((6,7-dimethoxyisoquinolin-4-yl)methyl)-N-ethyl-6-methoxyquinolin-2-amine dihydrochloride] yielded an IC50 of 32 nM.

`CCCc1ncc(Cc2cc3cc(OC)ccc3nc2NC)c2cc(OC)c(OC)cc12` [Compound 129, 3-((6,7-dimethoxy-1-propylisoquinolin-4-yl)methyl)-6-methoxy-N-methylquinolin-2-amine] displayed an IC50 of 9.5 nM.

For `COc1cc2c(Cc3cnc4ccccc4c3)cnc(C)c2cc1OC` [Compound 26, 3-((6,7-dimethoxy-1-methylisoquinolin-4-yl)methyl)quinoline dihydrochloride], 49 nM corresponded to half-maximal inhibition (IC50).

`COc1cc2c(Cc3ccc4cccc(N)c4n3)cnc(C)c2cc1OC` [Compound 152, 2-((6,7-dimethoxy-1-methylisoquinolin-4-yl)methyl)quinolin-8-amine] came in with an IC50 of 13 nM.

In general, IC50 refers to the midpoint of a concentration-inhibition curve. Read a high IC50 as a need for much substance.
